The record followed here is PMC6424628 (Neuropharmacology, 2019).

The target in experiment [1] is dopamine transporter (hDAT) (Homo sapiens, UniProt Q01959). Nature of the experiment: [3H]DA uptake inhibition in COS-7 cells expressing hDAT. The class given is cell-based.
Experiment [2] deals with norepinephrine transporter (hNET) (Homo sapiens, UniProt P23975). Kind of experiment: [3H]NE uptake inhibition in COS-7 cells expressing hNET. The class given is cell-based.
Sequence of norepinephrine transporter (hNET) (P23975 whole entry): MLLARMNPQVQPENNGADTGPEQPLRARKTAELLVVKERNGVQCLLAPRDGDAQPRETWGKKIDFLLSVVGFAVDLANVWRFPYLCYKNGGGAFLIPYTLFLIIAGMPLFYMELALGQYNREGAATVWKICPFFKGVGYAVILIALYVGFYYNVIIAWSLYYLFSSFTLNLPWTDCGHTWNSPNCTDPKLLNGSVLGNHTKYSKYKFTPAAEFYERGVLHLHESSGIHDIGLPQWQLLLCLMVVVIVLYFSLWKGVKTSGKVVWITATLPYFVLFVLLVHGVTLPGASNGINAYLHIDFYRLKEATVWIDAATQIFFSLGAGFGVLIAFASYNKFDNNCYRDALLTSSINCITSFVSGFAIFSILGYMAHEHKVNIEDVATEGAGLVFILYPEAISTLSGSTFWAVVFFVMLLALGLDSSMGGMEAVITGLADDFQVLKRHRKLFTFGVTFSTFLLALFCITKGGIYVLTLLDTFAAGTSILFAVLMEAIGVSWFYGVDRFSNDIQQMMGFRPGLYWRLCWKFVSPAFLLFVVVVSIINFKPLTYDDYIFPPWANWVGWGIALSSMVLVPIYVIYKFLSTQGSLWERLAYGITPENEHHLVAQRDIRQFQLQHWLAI

Sequence of dopamine transporter (hDAT) (Q01959 whole entry): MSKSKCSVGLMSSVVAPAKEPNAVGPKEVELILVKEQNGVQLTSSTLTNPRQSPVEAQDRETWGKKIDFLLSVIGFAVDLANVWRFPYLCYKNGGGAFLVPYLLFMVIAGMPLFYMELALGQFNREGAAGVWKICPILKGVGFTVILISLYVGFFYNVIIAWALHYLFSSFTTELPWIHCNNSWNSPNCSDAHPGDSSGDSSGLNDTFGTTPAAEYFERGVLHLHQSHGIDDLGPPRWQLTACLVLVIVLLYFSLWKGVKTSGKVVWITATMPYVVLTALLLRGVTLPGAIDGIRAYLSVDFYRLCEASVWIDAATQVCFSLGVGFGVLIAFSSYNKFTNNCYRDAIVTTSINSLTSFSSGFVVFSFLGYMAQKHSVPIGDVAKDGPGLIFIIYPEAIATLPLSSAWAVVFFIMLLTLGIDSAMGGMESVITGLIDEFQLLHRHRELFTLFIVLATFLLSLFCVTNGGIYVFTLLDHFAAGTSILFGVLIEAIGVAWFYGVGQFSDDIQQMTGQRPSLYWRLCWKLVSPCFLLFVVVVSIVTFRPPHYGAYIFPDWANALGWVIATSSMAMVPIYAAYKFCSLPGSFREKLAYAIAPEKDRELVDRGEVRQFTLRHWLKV

With `CC(N)CCc1ccccc1Cl` (centres unmarked) [SK609], the results for the inhibition constant Ki in experiment [1] and in experiment [2] were 5.7 ± 1.3 µM and 0.57 ± 0.11 µM, respectively.
